Assays:
Type in all cases: cell-based
[1] = test system: LXRα mRNA in 3T3-L1 adipocytes; experiment: Northern blot analysis of LXRα mRNA in 3T3-L1 adipocytes; conditions: for LXRα mRNA (Northern blot of total RNA): differentiating 3T3-L1 cells, 22-R 5 μM, Darglitazone 1 μM, alone or in combination, 24 hours, FIG. 2
Experimental: We performed Northern blot analysis on total RNA from 3T3-L1 adipocytes treated with increasing doses of a PPARγ agonist. Adipocytes treated over a 24 hrs period with […] of Darglitazone. 20 μg total RNA was subjected to Northern blotting and probed with a ^32P-labeled LXRα cDNA probe. The signal was obtained by scanning the autoradiogram and normalised for 18S RNA expression. […] These concentrations are in agreement with concentrations required for activation of PPARγ in reporter assays (Lehmann et al. 1995).
(§1) 3T3-L1 cells committed to adipocyte differentiation were treated with either Darglitazone, the LXRα agonist 22-R-hydroxy cholesterol, or both. 22-R-hydroxy cholesterol (22-R) is a naturally occurring agonist for LXRα (Janowski et al. 1996). […] Therefore, treatment of 3T3-L1 pre-adipocytes with either a PPARγ agonist or an LXRα agonist leads to fat accumulation and increased expression of LXRα.
(§2) The 3T3-L1 cell line (ATCC) was maintained in DMEM supplemented with 10% fetal calf serum, 2 mM L-glutamine and penicillin/streptomycin at 37° C. Cells were grown to confluence and exposed to adipogenic reagents for 3 days, followed by culturing for 3 more days in medium containing insulin only as described elsewhere (Lin and Lane, 1992). Insulin was used at a concentration of 1 μg/ml, dexamethasone at 1 μM and isobutylmethylxanthine at 0.5 mM.
(§3) Total RNA from differentiated 3T3-L1 adipocytes or adipose tissue were extracted by the Trizol (Life Technologies, Inc.) method as recommended by the manufacturer. Northern blot analysis of RNA was performed as described earlier (Sorensen et al., 1994). 20 μg of total RNA was analyzed for LXRα and ribosomal protein 18S mRNA.

3T3-L1 cells = experiment: Oil Red O staining of lipid droplet accumulation / adipocyte differentiation of 3T3-L1 cells; conditions: for lipid droplets (Oil Red-O staining): 3T3-L1 cells committed to adipocyte differentiation
Experimental: as §1, §2
Light microscopy and Oil Red O staining were used to monitor the characteristic cell rounding and lipid droplet accumulation in these cells during differentiation. Images were taken using a microscope (Leica DMIL) and a dual-colour charge coupled device camera (Leica MPS 60).

[2] = test system: LXRα mRNA in human adipocytes; experiment: Northern blot analysis of LXRα mRNA in human adipocytes; conditions: 1 μM Darglitazone, 5 μM 22-(R)-hydroxy cholesterol or both, 48 hrs, FIG. 3
Experimental: Human adipocytes were obtained from breast reduction surgery. Pieces of adipose tissue (5-600 mg) were prepared under sterile conditions and used for incubations in plastic tubes essentially as described (Ottosson et al., 1994). PolyA+ RNA was isolated and subjected to Northern blot analysis (FIG. 3).
as §3

Row | Compound | LXRα mRNA (Northern blot of total RNA) [1] | lipid droplets (Oil Red-O staining) (3T3-L1 cells) | adipocyte differentiation of 3T3-L1 pre-adipocytes (3T3-L1 cells; 3T3-L1 pre-adipocytes) | expression levels of LXRα mRNA (Northern blot of PolyA+ RNA) [2] | induction of LXRa mRNA ([1]; 3T3-L1 adipocytes, 24 hrs, 0.01, 0.1, and 1 mM, normalised for 18S RNA, FIG. 1)
1 | CC(C)CC[C@@H](O)[C@@H](C)[C@H]1CC[C@H]2[C@@H]3CC=C4C[C@@H](O)CC[C@]4(C)[C@H]3CC[C@]12C [22-R-hydroxy cholesterol] | increase | gradually larger lipid droplets | enhances adipocyte differentiation | increased expression levels | –
2 | Cc1oc(-c2ccccc2)nc1CCC(=O)c1ccc(CC2SC(=O)NC2=O)cc1 (centres unmarked) [Darglitazone] | increase | gradually larger lipid droplets | – | increased expression levels | approximately 5 fold
